Test results reported in patent publication US7838529B2, “Xanthine derivates, their preparation and their use in pharmaceutical compositions” (Boehringer Ingelheim International GmbH, priority 2002, dated 2010).
pIC50: −log10 of the molar value.

Legend:
[1] = target: T1, DPP-IV (Homo sapiens, UniProt P27487); experiment: DPP-IV assay with Caco-2 cell extract as DPP-IV source; format: biochemical; details: extract of human colon carcinoma cell line Caco-2; AFC substrate 100 μM; 60 minutes at ambient temperature; read-out: DPP-IV inhibition IC50
T1 construct: an extract of human colon carcinoma cell line Caco-2 is used as the DPP-IV source; endogenous in cells; host or cells: Caco-2 (human colon carcinoma), differentiated to induce DPP-IV expression
Description: The differentiation of the cells in order to induce the DPP-IV expression was carried out as described by Reiher et al., “Increased Expression of Intestinal Cell Line Caco-2”, Proc. Natl. Acad. Sci. Vol. 90, pages 5757-5761 (1993). The cell extract was obtained from cells solubilized in a buffer (10 mM Tris HCl, 0.15 M NaCl, 0.04 t.i.u. aprotinin, 0.5% Nonidet P-40, pH 8.0) by centrifuging at 35,000 g for 30 minutes at 4° C. (to remove cell debris).
The DPP-IV assay was carried out as follows:
50 μL substrate solution (AFC; AFC is amido-4-trifluoromethylcoumarin), final concentration 100 μM, were placed in black microtitre plates. 20 μL of assay buffer (final concentrations 50 mM Tris HCl pH 7.8, 50 mM NaCl, 1% DMSO) was pipetted in. The reaction was started by adding 30 μL of solubilized Caco-2 protein (final concentration 0.14 μg of protein per well). The test substances to be investigated were typically added prediluted in 20 μL, and the volume of assay buffer was then reduced accordingly. The reaction was carried out at ambient temperature, incubating for 60 minutes. Then the fluorescence was measured in a Victor 1420 Multilabel Counter, the excitation wavelength being 405 nm and the emission wavelength being 535 nm. Blank readings (corresponding to 0% activity) were obtained in mixtures without any Caco-2 protein (volume replaced by assay buffer), control values (corresponding to 100% activity) were obtained in mixtures with no substance added. […]

[2] = Tolerability after oral administration to rats (behavior); format: in vivo; details: 10 mg/kg

T1 sequence (P27487 whole entry): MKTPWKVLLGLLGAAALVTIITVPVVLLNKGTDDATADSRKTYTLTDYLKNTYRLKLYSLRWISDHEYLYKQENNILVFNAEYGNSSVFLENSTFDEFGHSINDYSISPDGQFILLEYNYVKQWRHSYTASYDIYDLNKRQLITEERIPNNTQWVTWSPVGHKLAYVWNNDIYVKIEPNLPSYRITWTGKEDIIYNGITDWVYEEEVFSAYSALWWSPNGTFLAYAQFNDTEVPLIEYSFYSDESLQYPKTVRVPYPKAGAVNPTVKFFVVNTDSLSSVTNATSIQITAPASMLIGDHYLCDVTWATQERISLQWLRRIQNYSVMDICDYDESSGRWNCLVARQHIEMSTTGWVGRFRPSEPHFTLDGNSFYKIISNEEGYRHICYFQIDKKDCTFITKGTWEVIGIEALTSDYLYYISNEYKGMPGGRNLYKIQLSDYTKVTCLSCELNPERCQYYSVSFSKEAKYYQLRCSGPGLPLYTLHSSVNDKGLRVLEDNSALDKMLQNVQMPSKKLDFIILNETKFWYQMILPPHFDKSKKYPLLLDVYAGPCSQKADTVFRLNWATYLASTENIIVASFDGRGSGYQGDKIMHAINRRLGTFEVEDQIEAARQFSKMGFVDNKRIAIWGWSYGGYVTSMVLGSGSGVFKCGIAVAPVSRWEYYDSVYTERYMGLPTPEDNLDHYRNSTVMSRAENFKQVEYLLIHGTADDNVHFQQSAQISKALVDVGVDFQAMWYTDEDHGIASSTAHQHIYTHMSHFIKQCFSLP

Row | pIC50 [1] | SMILES | changes in the animals' behavior [2]
1 | 7.96 | CC(C)=CCn1c(N2CCCC(N)C2)nc2c1c(=O)n(CC(=O)c1ccccc1NC(=O)C1CC1)c(=O)n2C (stereo not drawn) [1 (1), 1-(2-{2-[(cyclopropylcarbonyl)amino]phenyl}-2-oxoethyl)-3-methyl-7-(3-methyl-2-buten-1-yl)-8-(3-aminopiperidin-1-yl)xanthine] | 
2 | 8.52 | CC#CCn1c(N2CCCC(N)C2)nc2c1c(=O)n(CC(=O)c1ccccc1NC=O)c(=O)n2C (stereo not drawn) [1 (2), 1-[2-(2-formylaminophenyl)-2-oxoethyl]-3-methyl-7-(2-butyn-1-yl)-8-(3-aminopiperidin-1-yl)xanthine] | 
3 | 8.40 | C/C=C/Cn1c(N2CCC[C@@H](N)C2)nc2c1c(=O)n(CC(=O)c1ccccc1NC(=O)C1CC1)c(=O)n2C [1 (3), 1-(2-{2-[(cyclopropylcarbonyl)amino]phenyl}-2-oxoethyl)-3-methyl-7-((E)-2-buten-1-yl)-8-((R)-3-aminopiperidin-1-yl)xanthine] | 
4 | 8.52 | C/C=C/Cn1c(N2CCC[C@H](N)C2)nc2c1c(=O)n(CC(=O)c1ccccc1NC(=O)C1CC1)c(=O)n2C [1 (4), 1-(2-{2-[(cyclopropylcarbonyl)amino]phenyl}-2-oxoethyl)-3-methyl-7-((E)-2-buten-1-yl)-8-((S)-3-aminopiperidin-1-yl)xanthine] | 
5 | 8.30 | CC#CCn1c(N2CCC[C@H](N)C2)nc2c1c(=O)n(CC(=O)c1ccccc1NC(=O)C1CC1)c(=O)n2C [1 (6), 1-(2-{2-[(cyclopropylcarbonyl)amino]phenyl}-2-oxoethyl)-3-methyl-7-(2-butyn-1-yl)-8-((S)-3-aminopiperidin-1-yl)xanthine] | 
6 | 8.10 | C/C=C/Cn1c(N2CCCC(N)C2)nc2c1c(=O)n(CC(=O)c1ccccc1NC(=O)c1ccccn1)c(=O)n2C (stereo not drawn) [1 (7), 1-[2-(2-{[(pyridin-2-yl)carbonyl]amino}phenyl)-2-oxoethyl]-3-methyl-7-((E)-2-buten-1-yl)-8-(3-aminopiperidin-1-yl)xanthine] | 
7 | 8.52 | CC#CCn1c(N2CCC[C@@H](N)C2)nc2c1c(=O)n(CC(=O)c1ccccc1NC(=O)C1CC1)c(=O)n2C [Example 1 (5), 1-(2-{2-[(cyclopropylcarbonyl)amino]phenyl}-2-oxoethyl)-3-methyl-7-(2-butyn-1-yl)-8-((R)-3-aminopiperidin-1-yl)xanthine] | no changes in the animals' behavior could be detected
8 | 8.30 | CC(C)=CCn1c(N2CCCC(N)C2)nc2c1c(=O)n(CC(=O)c1ccccc1NC=O)c(=O)n2C (stereo not drawn) [Example 1, 1-[2-(2-formylaminophenyl)-2-oxoethyl]-3-methyl-7-(3-methyl-2-buten-1-yl)-8-(3-aminopiperidin-1-yl)xanthine] | 
